Data: patent US20260274829A1, “NEW E3 UBIQUITIN LIGASE LIGAND, PROTEIN DEGRADATION AGENT AND USE THEREOF” (GLUETACS THERAPEUTICS (SHANGHAI) CO., LTD., priority 2023, published 2026)

target: T1, human Cereblon WT GST-tagged protein (Homo sapiens, UniProt Q96SW2); assay: CRBN binding, HTRF CEREBLON BINDING kit; details: CRBN binding, HTRF CEREBLON BINDING kit
T1 construct: purchased CISBIO 64BDCRBNPEH
In short: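 Binding inhibition was calculated from the 665/620 nm emission ratios, with blank wells and solvent wells as references. Test compounds competed for GST-tagged human Cereblon WT against a Thalidomide-Re reagent paired with GST Eu antibody. Plates were sealed and held at room temperature for 3 hours before the HTRF read.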

T1 sequence (Q96SW2 whole entry): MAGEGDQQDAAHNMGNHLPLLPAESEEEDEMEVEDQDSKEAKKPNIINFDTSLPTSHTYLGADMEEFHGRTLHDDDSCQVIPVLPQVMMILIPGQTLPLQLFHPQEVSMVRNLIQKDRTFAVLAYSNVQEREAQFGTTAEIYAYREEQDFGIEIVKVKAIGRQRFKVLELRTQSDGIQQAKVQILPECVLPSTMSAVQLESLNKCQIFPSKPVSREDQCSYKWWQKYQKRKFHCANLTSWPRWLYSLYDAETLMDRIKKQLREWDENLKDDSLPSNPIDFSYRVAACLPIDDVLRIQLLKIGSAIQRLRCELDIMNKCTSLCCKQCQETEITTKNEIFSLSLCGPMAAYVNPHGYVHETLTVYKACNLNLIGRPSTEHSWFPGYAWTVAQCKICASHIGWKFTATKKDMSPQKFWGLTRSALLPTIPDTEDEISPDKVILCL

SMILES | IC50 [nM]
CN(Cc1ccc(N2CCC(=O)NC2=O)cn1)C1CCN(c2ccc(-c3cc(F)c4c(c3)C(=O)N(C(C(=O)Nc3nccs3)c3ncn5c3CCC5)C4)cc2)CC1 (centres unmarked) [GT-05282, 2-(6,7-dihydro-5H-pyrrolo[1,2-c]imidazol-1-yl)-2-(6-(4-(4-(((5-(2,4-dioxotetrahydropyrimidin-1(2H)-yl)pyridin-2-yl)methyl)(methyl)amino)piperidin-1-yl)phenyl)-4-fluoro-1-oxoisoindolin-2-yl)-N-(thiazol-2-yl)acetamide] | 500 to 1000
O=C1CCC(Nc2cccc(CN3CCN(c4ccc(Nc5ncc6nc(Nc7ccccc7)n(C7CCCC7)c6n5)cc4)CC3)c2)C(=O)N1 (centres unmarked) [GT-05841, 3-((3-((4-(4-((9-cyclopentyl-8-(phenylamino)-9H-purin-2-yl)amino)phenyl)piperazin-1-yl)methyl)phenyl)amino)piperidine-2,6-dione] | < 500
Cn1cc(-c2cc(S(C)(=O)=O)ccc2OCc2ccc(N3CCC(=O)NC3=O)cn2)c2cc[nH]c2c1=O [GT-06416, 1-(6-((2-(6-methyl-7-oxo-6,7-dihydro-1H-pyrrolo[2,3-c]pyridin-4-yl)-4-(methylsulfonyl)phenoxy)methyl)pyridin-3-yl)dihydropyrimidine-2,4(1H,3H)-dione] | 1000 to 1900
O=C1CCC(Nc2cccc(CN3C[C@H]4C[C@@H]3CN4c3ccc(-c4cc(F)c5c(c4)C(=O)N(C(C(=O)Nc4nccs4)c4ncn6c4CCC6)C5)cc3)c2)C(=O)N1 (stereo partly drawn) [GT-06179, 2-(6,7-dihydro-5H-pyrrolo[1,2-c]imidazol-1-yl)-2-(6-(4-((1R,4R)-5-(3-((2,6-dioxopiperidin-3-yl)amino)benzyl)-2,5-diazabicyclo[2.2.1]heptan-2-yl)phenyl)-4-fluoro-1-oxoisoindolin-2-yl)-N-(thiazol-2-yl)acetamide] | 500 to 1000
NC(=O)c1ncc(N2CCCCC2)nc1Nc1ccc(C2CCN(Cc3ccc(C4CCC(=O)NC4=O)c(F)c3)CC2)cc1 (centres unmarked) [GT-04786, 3-((4-(1-(4-(2,6-dioxopiperidin-3-yl)-3-fluorobenzyl)piperidin-4-yl)phenyl)amino)-5-(piperidin-1-yl)pyrazine-2-carboxamide] | < 500
O=C1CCC(c2ccc(CN3CCC(N4CCN(c5ccc(-c6cc(F)c7c(c6)C(=O)N(C(C(=O)Nc6nccs6)c6ncn8c6CCC8)C7)cc5)CC4)CC3)cc2)C(=O)N1 (centres unmarked) [GT-06326, 2-(6,7-dihydro-5H-pyrrolo[1,2-c]imidazol-1-yl)-2-(6-(4-(4-(1-(4-(2,6-dioxopiperidin-3-yl)benzyl)piperidin-4-yl)piperazin-1-yl)phenyl)-4-fluoro-1-oxoisoindolin-2-yl)-N-(thiazol-2-yl)acetamide] | 500 to 1000
O=C1CCC(c2ccc(CN3CCN(C4CCN(c5ccc(Nc6ncc7nc(Nc8ccccc8)n(C8CCCC8)c7n6)cc5)CC4)CC3)cc2)C(=O)N1 (centres unmarked) [GT-05915, 3-(4-((4-(1-(4-((9-cyclopentyl-8-(phenylamino)-9H-purin-2-yl)amino)phenyl)piperidin-4-yl)piperazin-1-yl)methyl)phenyl)piperidine-2,6-dione] | < 500
CC(C)(O)c1cc2nn(C3CCN(Cc4ccc(C5CCC(=O)NC5=O)cc4)CC3)cc2cc1NC(=O)c1cccc(C(F)(F)F)n1 (centres unmarked) [GT-05753, N-(2-(1-(4-(2,6-dioxopiperidin-3-yl)benzyl)piperidin-4-yl)-6-(2-hydroxypropan-2-yl)-2H-indazol-5-yl)-6-(trifluoromethyl)picolinamide] | 500 to 1000
CN(C)C(=O)c1cc2cnc(Nc3ccc(N4CCN(Cc5ccc(C6CCC(=O)NC6=O)cc5)CC4)cn3)nc2n1C1CCCC1 (centres unmarked) [GT-06339, 7-cyclopentyl-2-((5-(4-(4-(2,6-dioxopiperidin-3-yl)benzyl)piperazin-1-yl)pyridin-2-yl)amino)-N,N-dimethyl-7H-pyrrolo[2,3-d]pyrimidine-6-carboxamide] | < 500
CC(=O)c1c(C)c2cnc(Nc3ccc(N4CCN(Cc5ccc(N6CCC(=O)NC6=O)cn5)CC4)cn3)nc2n(C2CCCC2)c1=O [GT-06578, 1-(6-((4-(6-((6-acetyl-8-cyclopentyl-5-methyl-7-oxo-7,8-dihydropyrido[2,3-d]pyrimidin-2-yl)amino)pyridin-3-yl)piperazin-1-yl)methyl)pyridin-3-yl)dihydropyrimidine-2,4(1H,3H)-dione] | 1000 to 1900

Now from value to compound:

IC50 [nM] | SMILES
1000 to 1900 | COc1cc(N2CCC(N(C)Cc3cncc(N4CCC(=O)NC4=O)c3)CC2)ccc1Nc1ncc(Cl)c(Nc2ccccc2P(C)(C)=O)n1 [GT-07695, 1-(5-(((1-(4-((5-chloro-4-((2-(dimethylphosphoryl)phenyl)amino)pyrimidin-2-yl)amino)-3-methoxyphenyl)piperidin-4-yl)(methyl)amino)methyl)pyridin-3-yl)dihydropyrimidine-2,4(1H,3H)-dione]
500 to 1000 | Cc1nc2c(F)cc(-c3nc(Nc4ccc(N5CCC(N(C)Cc6ccc(C7CCC(=O)NC7=O)cc6)CC5)cn4)ncc3F)cc2n1C(C)C (centres unmarked) [GT-06735, 3-(4-(((1-(6-((5-fluoro-4-(4-fluoro-1-isopropyl-2-methyl-1H-benzo[d]imidazol-6-yl)pyrimidin-2-yl)amino)pyridin-3-yl)piperidin-4-yl)(methyl)amino)methyl)phenyl)piperidine-2,6-dione]
1000 to 1900 | Cc1cc(Nc2ncc(Cl)c(Nc3ccccc3S(=O)(=O)C(C)C)n2)c(OC(C)C)cc1C1CCN(Cc2cncc(C3CCC(=O)NC3=O)c2)CC1 (centres unmarked) [GT-07601, 3-(5-((4-(4-((5-chloro-4-((2-(isopropylsulfonyl)phenyl)amino)pyrimidin-2-yl)amino)-5-isopropoxy-2-methylphenyl)piperidin-1-yl)methyl)pyridin-3-yl)piperidine-2,6-dione]
< 500 | CN(Cc1cncc(C2CCC(=O)NC2=O)c1)C1CCN(c2ccc(-c3cc(F)c4c(c3)C(=O)N(C(C(=O)Nc3nccs3)c3ncn5c3CCC5)C4)cc2)CC1 (centres unmarked) [GT-07393, 2-(6,7-dihydro-5H-pyrrolo[1,2-c]imidazol-1-yl)-2-(6-(4-(4-(((5-(2,6-dioxopiperidin-3-yl)pyridin-3-yl)methyl)(methyl)amino)piperidin-1-yl)phenyl)-4-fluoro-1-oxoisoindolin-2-yl)-N-(thiazol-2-yl)acetamide]
< 500 | O=C1CCC(c2ccc(CN3CCN(c4ccc(-c5cc(F)c6c(c5)C(=O)N(C(C(=O)Nc5nccs5)c5ncn7c5CCC7)C6)cc4)CC3)nc2)C(=O)N1 (centres unmarked) [GT-07381, 2-(6,7-dihydro-5H-pyrrolo[1,2-c]imidazol-1-yl)-2-(6-(4-(4-((5-(2,6-dioxopiperidin-3-yl)pyridin-2-yl)methyl)piperazin-1-yl)phenyl)-4-fluoro-1-oxoisoindolin-2-yl)-N-(thiazol-2-yl)acetamide]
< 500 | Cc1nc2c(F)cc(-c3nc(Nc4ccc(CN5CCN(Cc6cccc(N7CCC(=O)NC7=O)c6)CC5)cn4)ncc3F)cc2n1C(C)C [GT-06666, 1-(3-((4-((6-((5-fluoro-4-(4-fluoro-1-isopropyl-2-methyl-1H-benzo[d]imidazol-6-yl)pyrimidin-2-yl)amino)pyridin-3-yl)methyl)piperazin-1-yl)methyl)phenyl)dihydropyrimidine-2,4(1H,3H)-dione]
500 to 1000 | CC(=O)c1c(C)c2cnc(Nc3ccc(N4CCC(N5CCN(Cc6ccc(C7CCC(=O)NC7=O)cc6)CC5)CC4)cn3)nc2n(C2CCCC2)c1=O (centres unmarked) [GT-06659, 3-(4-((4-(1-(6-((6-acetyl-8-cyclopentyl-5-methyl-7-oxo-7,8-dihydropyrido[2,3-d]pyrimidin-2-yl)amino)pyridin-3-yl)piperidin-4-yl)piperazin-1-yl)methyl)phenyl)piperidine-2,6-dione]
